Laboratory results as given in PubChem BioAssay AID192 (DTP/NCI, 2004).
Where “and” joins values, the source holds several entries; their conditions need not be identical. Equal entries are not always repeated. Toxic doses and inconclusive results are not listed.

Tested on: BDF1 mice, B16 melanoma ip, median survival T/C
Test: NCI In Vivo Anticancer Drug Screen. Data for tumor model B16 Melanoma (intraperitoneal) in B6D2F1 (BDF1) mice
Details: endpoint: median survival time, higher = longer survival
How it was run: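 Tumor-bearing mice received test compound or vehicle. Survival or tumor size was then measured in both groups. The treated-group figure was divided by the control-group figure.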

[1] = dose: 12.5 mg/kg/injection, schedule: Q01DX009 (ip), vehicle: saline with Tween-80
[2] = dose: 25.0 mg/kg/injection, schedule: Q01DX009 (ip), vehicle: saline with Tween-80
[3] = dose: 50.0 mg/kg/injection, schedule: Q01DX009 (ip), vehicle: saline with Tween-80
[4] = dose: 50.0 mg/kg/injection, schedule: Q01DX009 (ip), vehicle: Klucel (hydroxypropylcellulose) (HPC)
[5] = dose: 100.0 mg/kg/injection, schedule: Q01DX009 (ip), vehicle: Klucel (hydroxypropylcellulose) (HPC)
[6] = dose: 200.0 mg/kg/injection, schedule: Q01DX009 (ip), vehicle: Klucel (hydroxypropylcellulose) (HPC)
[7] = dose: 0.78 mg/kg/injection, schedule: Q01DX009 (ip), vehicle: saline
[8] = dose: 3.12 mg/kg/injection, schedule: Q01DX009 (ip), vehicle: saline
[9] = dose: 6.25 mg/kg/injection, schedule: Q01DX009 (ip), vehicle: saline
[10] = dose: 12.5 mg/kg/injection, schedule: Q01DX009 (ip), vehicle: saline
[11] = dose: 25.0 mg/kg/injection, schedule: Q01DX009 (ip), vehicle: saline

## CCCCC[C@H](O)/C=C/[C@H]1[C@H](O)CC(=O)[C@@H]1C/C=C\CCCC(=O)O
dose: 0.75 mg/kg/injection, schedule: Q04DX002 (ip), vehicle: Klucel (hydroxypropylcellulose) (HPC)
  T/C: 108 % of control
dose: 1.5 mg/kg/injection, schedule: Q04DX002 (ip), vehicle: Klucel (hydroxypropylcellulose) (HPC)
  T/C: 97 % of control
dose: 3.0 mg/kg/injection, schedule: Q04DX002 (ip), vehicle: Klucel (hydroxypropylcellulose) (HPC)
  T/C: 96 % of control
dose: 6.0 mg/kg/injection, schedule: Q04DX002 (ip), vehicle: Klucel (hydroxypropylcellulose) (HPC)
  T/C: 92 % of control
dose: 12.5 mg/kg/injection, schedule: Q04DX002 (ip), vehicle: other
  T/C: 96 % of control
dose: 24.0 mg/kg/injection, schedule: Q04DX002 (ip), vehicle: Klucel (hydroxypropylcellulose) (HPC)
  T/C: 103 % of control
dose: 25.0 mg/kg/injection, schedule: Q04DX002 (ip), vehicle: other
  T/C: 91 % of control
dose: 100.0 mg/kg/injection, schedule: Q04DX002 (ip), vehicle: other
  T/C: 96 % of control
dose: 200.0 mg/kg/injection, schedule: Q04DX002 (ip), vehicle: other
  T/C: 96 % of control

## Nc1ncnc2c1c(C(=O)O)cn2C1OC(CO)C(O)C1O (configuration not stated)
[1]
  T/C: 91 % of control
[2]
  T/C: 93 % of control
[3]
  T/C: 96 % of control

## CC(O)c1cccnc1 (configuration not stated)
dose: 10.0 mg/kg/injection, schedule: Q01DX009 (ip), vehicle: saline
  T/C: 122 % of control
dose: 20.0 mg/kg/injection, schedule: Q01DX009 (ip), vehicle: saline
  T/C: 116 % of control
dose: 40.0 mg/kg/injection, schedule: Q01DX009 (ip), vehicle: saline
  T/C: 122 % of control

## CNC(=O)Nc1cccc(C(F)(F)F)c1
dose: 25.0 mg/kg/injection, schedule: Q01DX009 (ip), vehicle: Klucel (hydroxypropylcellulose) (HPC)
  T/C: 99 % of control
[4]
  T/C: 100 % of control
[5]
  T/C: 90 % of control and 112 % of control

## CCCN(C)/N=N/c1[nH]ncc1C(N)=O
dose: 17.0 mg/kg/injection, schedule: Q01DX009 (ip), vehicle: saline with Tween-80
  T/C: 114 % of control
dose: 37.0 mg/kg/injection, schedule: Q01DX009 (ip), vehicle: saline with Tween-80
  T/C: 111 % of control
[3]
  T/C: 121 % of control

## CN1CCN(Cc2nc3cccc4c3c([n+]2[O-])-c2ccccc2-4)CC1
[1]
  T/C: 101 % of control
[2]
  T/C: 95 % of control
[3]
  T/C: 105 % of control
dose: 100.0 mg/kg/injection, schedule: Q01DX009 (ip), vehicle: saline with Tween-80
  T/C: 112 % of control
dose: 200.0 mg/kg/injection, schedule: Q01DX009 (ip), vehicle: saline with Tween-80
  T/C: 116 % of control

## CC(C)N(C(=O)COc1ccc(Cl)cc1)c1ccccc1
[4]
  T/C: 86 % of control
[5]
  T/C: 106 % of control
[6]
  T/C: 86 % of control

## OCCN1CCN(CCCN2c3ccccc3Oc3ccc(C(F)(F)F)cc32)CC1
[7]
  T/C: 105 % of control
dose: 1.56 mg/kg/injection, schedule: Q01DX009 (ip), vehicle: saline
  T/C: 100 % of control
[8]
  T/C: 107 % of control
[9]
  T/C: 102 % of control
[10]
  T/C: 87 % of control

## CC(C)CCC[C@@H](C)[C@H]1CC[C@H]2[C@@H]3CC=C4C[C@@H](O)CC[C@]4(C)[C@H]3CC[C@]12C
dose: 100.0 mg/kg/injection, schedule: Q01DX009 (ip), vehicle: other
  T/C: 98 % of control
dose: 200.0 mg/kg/injection, schedule: Q01DX009 (ip), vehicle: other
  T/C: 114 % of control

## C#C[C@]1(O)CC[C@H]2[C@@H]3CCc4cc(O)ccc4[C@H]3CC[C@@]21C
dose: 5.0 mg/kg/injection, schedule: Q02DX009 (ip), vehicle: Klucel (hydroxypropylcellulose) (HPC)
  T/C: 86 % of control
dose: 10.0 mg/kg/injection, schedule: Q02DX009 (ip), vehicle: Klucel (hydroxypropylcellulose) (HPC)
  T/C: 97 % of control
dose: 20.0 mg/kg/injection, schedule: Q02DX009 (ip), vehicle: Klucel (hydroxypropylcellulose) (HPC)
  T/C: 87 % of control
dose: 40.0 mg/kg/injection, schedule: Q02DX009 (ip), vehicle: Klucel (hydroxypropylcellulose) (HPC)
  T/C: 86 % of control and 96 % of control
dose: 80.0 mg/kg/injection, schedule: Q02DX009 (ip), vehicle: Klucel (hydroxypropylcellulose) (HPC)
  T/C: 86 % of control

## OC(CCl)CN1CC[N+]2(CC1)CC[N+]1(CCN(CC(O)CCl)CC1)CC2 (configuration not stated)
dose: 4.0 mg/kg/injection, schedule: Q03HX024 (ip), vehicle: water
  T/C: 114 % of control
dose: 8.0 mg/kg/injection, schedule: Q03HX016 (ip), vehicle: water
  T/C: 114 % of control
dose: 8.0 mg/kg/injection, schedule: Q03HX024 (ip), vehicle: water
  T/C: 117 % of control
[10]
  T/C: 116 % of control
dose: 16.0 mg/kg/injection, schedule: Q01DX009 (ip), vehicle: water
  T/C: 114 % of control
dose: 16.0 mg/kg/injection, schedule: Q03HX008 (ip), vehicle: water
  T/C: 113 % of control
dose: 16.0 mg/kg/injection, schedule: Q03HX016 (ip), vehicle: water
  T/C: 121 % of control
dose: 16.0 mg/kg/injection, schedule: Q03HX024 (ip), vehicle: water
  T/C: 121 % of control
[11]
  T/C: 111 % of control
dose: 32.0 mg/kg/injection, schedule: Q03HX008 (ip), vehicle: water
  T/C: 123 % of control
dose: 44.0 mg/kg/injection, schedule: Q01DX009 (ip), vehicle: saline
  T/C: 116 % of control
dose: 66.0 mg/kg/injection, schedule: Q01DX009 (ip), vehicle: water
  T/C: 151 % of control and 172 % of control
dose: 100.0 mg/kg/injection, schedule: Q01DX009 (ip), vehicle: water
  T/C: 150 % of control

## c1ccc2[nH]c(/N=N/c3nc4ccccc4[nH]3)nc2c1
[5]
  T/C: 102 % of control
[6]
  T/C: 102 % of control
dose: 400.0 mg/kg/injection, schedule: Q01DX009 (ip), vehicle: Klucel (hydroxypropylcellulose) (HPC)
  T/C: 91 % of control

## CCCCOCCC1CCNCC1
[10]
  T/C: 116 % of control
[11]
  T/C: 106 % of control
dose: 50.0 mg/kg/injection, schedule: Q01DX009 (ip), vehicle: saline
  T/C: 110 % of control

## Cc1nc(N)[nH]c(=O)c1Br
dose: 100.0 mg/kg/injection, schedule: Q04DX003 (ip), vehicle: Klucel (hydroxypropylcellulose) (HPC)
  T/C: 97 % of control
dose: 200.0 mg/kg/injection, schedule: Q04DX003 (ip), vehicle: Klucel (hydroxypropylcellulose) (HPC)
  T/C: 93 % of control
dose: 400.0 mg/kg/injection, schedule: Q04DX003 (ip), vehicle: Klucel (hydroxypropylcellulose) (HPC)
  T/C: 89 % of control

## COC(=O)[C@H]1[C@H]2C[C@@H]3c4[nH]c5cc(OC)ccc5c4CCN3C[C@H]2C[C@@H](OC(=O)c2cc(OC)c(OC)c(OC)c2)[C@@H]1OC
dose: 0.04 mg/kg/injection, schedule: Q01DX009 (ip), vehicle: saline
  T/C: 91 % of control
dose: 0.09 mg/kg/injection, schedule: Q01DX009 (ip), vehicle: saline
  T/C: 91 % of control
dose: 0.19 mg/kg/injection, schedule: Q01DX009 (ip), vehicle: saline
  T/C: 90 % of control
dose: 0.39 mg/kg/injection, schedule: Q01DX009 (ip), vehicle: saline
  T/C: 91 % of control
[7]
  T/C: 88 % of control

## CC(=O)Oc1ccccc1C(=O)O
dose: 15.7 mg/kg/injection, schedule: Q01DX009 (ip), vehicle: saline with Tween-80
  T/C: 86 % of control
dose: 31.3 mg/kg/injection, schedule: Q01DX009 (ip), vehicle: saline with Tween-80
  T/C: 102 % of control
dose: 62.5 mg/kg/injection, schedule: Q01DX009 (ip), vehicle: saline with Tween-80
  T/C: 97 % of control

## COc1ccc(NC(=O)Nc2ccc(C)c(Cl)c2)cc1
dose: 100.0 mg/kg/injection, schedule: Q01DX009 (sc), vehicle: olive oil, sesame oil, peanut oil
  T/C: 109 % of control
dose: 200.0 mg/kg/injection, schedule: Q01DX009 (sc), vehicle: olive oil, sesame oil, peanut oil
  T/C: 100 % of control
dose: 400.0 mg/kg/injection, schedule: Q01DX009 (sc), vehicle: olive oil, sesame oil, peanut oil
  T/C: 98 % of control

## CN(C)CCC1(c2ccccc2)C=Cc2ccccc21 (configuration not stated)
[8]
  T/C: 108 % of control
[9]
  T/C: 102 % of control
[10]
  T/C: 108 % of control
[11]
  T/C: 95 % of control

## COC1CCC2=C(C1)C(=O)CC1c3ccccc3CN21 (configuration not stated)
[1]
  T/C: 86 % of control
dose: 12.5 mg/kg/injection, schedule: Q04DX003 (ip), vehicle: saline with Tween-80
  T/C: 92 % of control
[2]
  T/C: 93 % of control
dose: 25.0 mg/kg/injection, schedule: Q04DX003 (ip), vehicle: saline with Tween-80
  T/C: 105 % of control
[3]
  T/C: 93 % of control
dose: 50.0 mg/kg/injection, schedule: Q04DX003 (ip), vehicle: saline with Tween-80
  T/C: 97 % of control

## CC(C)C(=O)OCC1OC(n2cnc3c(=S)nc(N)[nH]c32)C(OC(=O)C(C)C)C1OC(=O)C(C)C (configuration not stated)
dose: 3.13 mg/kg/injection, schedule: Q01DX009 (ip), vehicle: saline with Tween-80
  T/C: 114 % of control
dose: 6.25 mg/kg/injection, schedule: Q01DX009 (ip), vehicle: saline with Tween-80
  T/C: 108 % of control
[1]
  T/C: 110 % of control
